Reference: patent publication US20250213587A1, “ITK INHIBITORS FOR INCREASING TH1 CELL ACTIVITY” (Corvus Pharmaceuticals, Inc., priority 2022, published 2025)
“Also recorded” adds a separate entry of the source.

Tests used:
[1] = system: IL-4 production by CD4+ T cells; assay: T cell activation, IL-4+CD4+ T cells; type: cell-based, human
Procedure: Fresh PBMCs from healthy human donors were centrifuged and reconstituted at 0.312×10^6 cells/mL in RPMI 1640 medium+10% heat-inactivated FBS+1× penicillin streptomycin and 100,000 cells/well were distributed into 24 well tissue culture plate. Cells were incubated at 37° C. for 1 hour, followed by the addition of CPI 596 or vehicle. The cells were then incubated at 37° C. for 1 hour, followed by the addition of […] anti CD3 and anti CD28 (both eBioscience). Cells were incubated at 37° C. for 6 days, with supplemental media supplied on day 3. On Day 6, the cells were transferred to a 96 deep well plate, washed, and treated with 50 nM phorbol 12-myristate 13-acetate, 1 μg/mL ionomycin, and 1 μg/mL brefeldin A, and then incubated at 37° C. for 4 hours. The cells were then fixed and permeabilized using eBioscience Fox3/transcription factor staining buffer. Cells were treated with Fc block (BioLegend) and then stained with CD3 BV605, CD45RA PerCP-Cy5.5, Tbet PE, IFNγ AF488, IL-4 APC (BioLegend), CD4 PE-Cy7, cPARP AF700 (BD Biosciences), and CD8 Krome Orange (Beckman Coulter). For flow cytometry, 300,000 cells were acquired on Cytoflex (Beckman Coulter). Data were analyzed using Flowjo software. The percentage of CD4^+ T cells that were positive for IFNγ and IL 4 were reported.

human kinome = assay: Human kinome profiling at 1.0 μM; type: biochemical
[2] = Glutathione reactivity assay; type: physicochemical; details: 37° C.
Procedure: The reactivity of acrylamides with glutathione was determined by measuring the disappearance of starting material and appearance of the adduct with glutathione in HPLC-MS spectra as a function of time. All the stock solutions and solvents were bubbled with nitrogen and all reactions were run under nitrogen at 37° C. A 250 μL volume of 20 mM test compound in DMSO was mixed with 250 μL of 2.0 mM indoprofen (used as internal standard) in DMSO and 4.5 mL of 11.1 mM glutathione in 100 mM potassium phosphate buffer (pH 7.4). Each reaction contained 1 mM test compound, 0.1 mM indoprofen, and 10 mM glutathione in 100 mM potassium phosphate buffer and 10% DMSO. The reaction mixture was stirred at 37° C. for 5 hours and sampled for HPLC-MS analysis every hour. The reaction product, internal standard and starting materials were separated by liquid chromatography using an Agilent Eclipse XBD-C18 column (4.6×150 mm, 3.5 um) and quantified by UV absorption. The mobile phase consisted of solvent A (water) and solvent B (acetonitrile), employing a gradient of 10% to 95% solvent B over 10 min.

S6 phosphorylation = assay: pS6 flow cytometry after CD3/28 crosslinking; type: cell-based; details: Homo sapiens, mean of three donors
Procedure: PBMCs were pelleted (400×g at 4° C. for 5 minutes) and resuspended in RPMI+10% heat-inactivated fetal bovine serum (FBS) at 14.3×10^6 cells/mL; 70 μL (1×10^6 cells) were plated in a 96 well U bottom plate and incubated at 37° C. for 1 hour. […] CD3-biotin and CD28-biotin were prepared together at 10 μg/mL each, which is 10× the final concentration; 10 μL antibodies were added to the cells and incubated at 37° C. for 15 minutes. Avidin was prepared at 500 μg/mL, which is 10× the final concentration; 10 μL avidin were added to the cells and incubated at 37° C. for 5 minutes to induce TCR crosslinking. A total volume of 100 μL cells were transferred to 200 μL warm 2.4% paraformaldehyde (PFA) in deep well blocks. Pipetting was performed using a liquidator 96 to add reagents to the entire plate with uniform timing. Cells were fixed with PFA at 37° C. for 10 minutes. Cells were pelleted (1000× g for 5 minutes), and the plate was aspirated leaving approximately 100 μL residual volume. The plate was then vigorously vortexed for 10 seconds, and 1 mL −20° C. methanol was added to each well. Cells were stored at […] for approximately 1 month. […] Inhibition was measured by construction of a concentration response curve of the Log base 10 transformed values of the molar concentration of inhibitor. […]

[3] = system: CD4+ T cells, Sézary cells; assay: Cytokine production by CD4+ cells and Sézary cells stimulated with anti-CD3/28/2; type: cell-based, human
Source text: This is significant because cytokines secreted by Th2 cells are involved in inflammation, allergy and autoimmunity. […] There was no effect on Th1-dependent IFNg, except at high concentrations. Inhibition of Th2 cells blocks production of various inflammatory cytokines, including IL-4, IL-5, IL-9, IL-13, and IL17a.

[4] = system: Th1, Th17, CD4+ effector cells, eosinophils; assay: Blood and tumor cell changes in treated lymphoma patients; type: in vivo, human
[5] = Mouse pharmacokinetics after oral dosing; type: in vivo

stability of acrylamide in presence of glutathione ([2]; 3 h): minimal loss
loss in presence of glutathione ([2]; physiological glutathione, 5 h): 4%
IC50 (S6 phosphorylation): 96 nM
Tmax ([5]; male, C57Bl/6, mouse, plasma, single 50 mg/kg PO): 0.5 h
half-life ([5]; male, C57Bl/6, mouse, plasma, single 50 mg/kg PO, read-out: half-life in circulation (converted)): 2.4 h
oral bioavailability ([5]; mouse, in vivo, po): orally bioavailable
decrease of plasma concentration ([5]; single 50 mg/kg PO, over first 8 h): 10 fold
SMILES: C=CC(=O)N1CCCN(C(=O)c2cc(Sc3cnc(NC(=O)C4CC4)s3)c(C)cc2OC)C[C@H]1C [CPI-818]
IL-4 production ([1]; 10 μM): complete inhibition
inhibition at 1 µM ([1]; Homo sapiens, CD4+ T, 1 μM, average, read-out: inhibition of percentage of CD4+ T cells that produced IL-4): 64%
number of kinases inhibited ≥65% (human kinome): eight
Interferon gamma (IFNg) production [3]: only inhibited at high concentrations
Th2 cytokine production ([3]; CD4+ T cells): dose-dependent inhibition of Th2 cytokine
CD4+ effector cells ([4]; blood and tumor, 200 mg BID): increases
Th17 pro-inflammatory cells ([4]; lymphoma patient): decrease
Th1 cells ([4]; lymphoma patient, blood/tumor): increases
eosinophils ([4]; patient on therapy): decreased while on therapy; also recorded: marked reduction
